From patent US20260021167A1, “COMPOSITIONS AND METHODS FOR TREATING OR PREVENTING NEURODEGENERATIVE DISEASES” (Delaware State University, priority 2022, published 2026)

How the values were obtained:
nigrostriatal neurons = assay: ROS in nigrostriatal neurons of PFF-injected mice; format: in vivo; conditions: PFF injection, mouse brains
[1] = system: SUMO-1 conjugated α-synuclein; assay: Western blot of SUMO-1 conjugated α-synuclein in α-synuclein IP tissue samples; format: in vivo, mouse; conditions: PFF-injected mice, vs PFF only
Protocol: (§1) A) In Western blots, Momordin reversed the toxicity from PFF injection in reducing phospho-α-synuclein and SENP-1 on α-synuclein in the MB and STR. […] A pathological marker, phosphorylated α-synuclein was increased by PFF injection, which was reversed by Momordin treatment in the MB (F) and the STR (G).
(§2) A mouse model of Parkinson's disease is C57BL/6 male or female mice (50% each) injected with 5 μg of mouse PFF at 12 months old, followed by a treatment below for 6-7 weeks: • 1) without PFF injection, followed by vehicle (control, n=7); • 2) PFF injection, followed by vehicle (PFF only: control, n=8); • 3) PFF injection, followed by daily 10 mg/kg Momordin gavage (n=7-8); • 4) PFF injection, followed by daily 50 mg/kg Momordin gavage (n=7-8).

SENP-1 on α-synuclein = target: T1, SENP-1 on α-synuclein (Mus musculus, UniProt P59110); assay: Western blot of SENP-1 on α-synuclein in α-synuclein IP tissue samples; format: in vivo; conditions: PFF-injected mice, vs PFF only
T1 construct: from tissue; host or cells: mouse brain: midbrain and striatum, α-synuclein immunoprecipitates
T1 sequence (P59110 1-640): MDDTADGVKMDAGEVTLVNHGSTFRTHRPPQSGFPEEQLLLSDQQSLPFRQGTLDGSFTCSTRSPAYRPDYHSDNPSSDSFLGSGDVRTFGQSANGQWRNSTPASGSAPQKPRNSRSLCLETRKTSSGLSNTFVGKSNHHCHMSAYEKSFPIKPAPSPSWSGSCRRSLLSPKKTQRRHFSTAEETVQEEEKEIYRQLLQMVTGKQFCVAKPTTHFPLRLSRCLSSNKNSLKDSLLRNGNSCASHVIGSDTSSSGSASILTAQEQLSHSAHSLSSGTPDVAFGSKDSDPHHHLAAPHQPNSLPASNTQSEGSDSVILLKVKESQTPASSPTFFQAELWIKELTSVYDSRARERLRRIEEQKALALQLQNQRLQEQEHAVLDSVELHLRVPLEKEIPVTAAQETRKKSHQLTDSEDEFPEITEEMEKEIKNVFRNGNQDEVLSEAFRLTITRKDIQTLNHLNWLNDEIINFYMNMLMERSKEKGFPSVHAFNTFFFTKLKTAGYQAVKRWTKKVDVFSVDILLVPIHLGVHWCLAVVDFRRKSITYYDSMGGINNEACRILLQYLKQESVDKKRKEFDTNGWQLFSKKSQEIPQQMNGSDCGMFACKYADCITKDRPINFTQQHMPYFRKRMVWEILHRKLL
Protocol: as §1, §2

PFF-injected old mice [2] = assay: Pole test in PFF-injected mice; format: in vivo, mouse; conditions: 10 and/or 50 mg/kg oral, vs PFF only
Protocol: as §2
Pole Test. All the mice were placed on a vertical pole with their face up and habituated to face down the pole to climb down for 5 consecutive days. The time taken for a mouse to turn and position for the descend was noted, and the latency for climb-down was counted. A mouse falling off or slipping down the pole without turning was considered a failure. Videos of the pole test were taken and analyzed by a blinded rater to record the total climb-down or turn time. Minimal 5 trials were performed for each animal, and the average of 5 trials was considered as the final score for data presentation.

PFF-injected old mice [3] = assay: Rotarod in PFF-injected mice; format: in vivo, mouse; conditions: 10 and/or 50 mg/kg oral, vs PFF only
Protocol: as §2
Rotarod. Rotarod is a behavioral test used to measure motor functionality. For three consecutive days, all the mice were habituated on the rotating rod comprising a horizontal plane rotating at a speed of 4 rotations per minute (rpm), increasing by 2 rpm every minute for 10 min or until they fell off the rod at 20 rpm. The data were collected over three consecutive days where the animals were placed on the rod at 4 rpm, and the rod increased the speed by 1 rpm every 16 sec for 10 min or until the mouse fell off. A longer latency to fall indicates an improved motor functionality.

PFF-injected old mice [4] = assay: Hindlimb clasping in PFF-injected mice; format: in vivo, mouse; conditions: 10 and/or 50 mg/kg oral, vs PFF only
Protocol: as §2
Hindlimb Clasping. This is often characterized by bat-like posture when mice are picked up by the tail, indicating they are experiencing severe motor deficits. A mouse was placed on a horizontal plane and held at 2 cm from the tail tip, then slowly to the height of 10 cm from the surface. A video was recorded for 15 sec for each trial. A total of 3 trials were taken over 3 consecutive days and analyzed for the time in hindlimb clasping by a blinded rater.

## CC1(C)CC[C@]2(C(=O)O)CC[C@]3(C)C(=CC[C@@H]4[C@@]5(C)CC[C@H](O[C@@H]6O[C@H](C(=O)O)[C@@H](O)[C@H](O[C@@H]7OC[C@@H](O)[C@H](O)[C@H]7O)[C@H]6O)C(C)(C)[C@@H]5CC[C@]43C)[C@@H]2C1 [Momordin lc]
Nigrostriatal neurons
  level of ROS in nigrostriatal neurons: alleviated the level of ROS
[1]; midbrain
  SUMO-1 conjugated α-synuclein in the MB (α-synuclein IP): increase in SUMO-1 conjugated α-synuclein
[1]; striatum
  SUMO-1 conjugated α-synuclein in the STR (α-synuclein IP): increase in SUMO-1 conjugated α-synuclein
SENP-1 on α-synuclein; midbrain
  PFF-induced SENP-1 on α-synuclein in the MB (α-synuclein IP): reduced
SENP-1 on α-synuclein; striatum
  PFF-induced SENP-1 on α-synuclein in the STR (α-synuclein IP): reduced
PFF-injected old mice [2]
  climb-down time in pole tests: reduces
  turn time in pole tests: reduces
PFF-injected old mice [3]
  mobility on rotarod: enhances the mobility on rotarod
PFF-injected old mice [4]
  hindlimb clasping: reduces hindlimb clasping
